{"source": "paper PMC3880798", "about": "(Clinical cancer research : an official journal of the …, 2013)", "origin": "cited, not measured here", "key": {"GIST": {"system": "GIST", "details": "cited from earlier work"}, "[1]": {"details": "cited from earlier work"}, "c-Kit": {"system": "c-Kit", "details": "intact cellular systems; cited from earlier work"}}, "note": "Read-outs that look alike come from different tables or passages of the source."}
{"smiles": "Cc1cn(-c2cc(NC(=O)c3ccc(C)c(Nc4nccc(-c5cccnc5)n4)c3)cc(C(F)(F)F)c2)cn1", "note": "[nilotinib]", "values": [{"measurement": "Disease stabilization", "setting": "GIST", "result": 38, "unit": "%"}, {"measurement": "Median duration of disease stabilization", "setting": "GIST", "result": 12, "unit": "weeks"}]}
{"smiles": "Cc1ccc(Nc2nccc(N(C)c3ccc4c(C)n(C)nc4c3)n2)cc1S(N)(=O)=O", "note": "[pazopanib]", "values": [{"measurement": "Patients with proteinuria", "setting": "[1]", "result": 51, "unit": "%"}]}
{"smiles": "CCN(CC)CCNC(=O)c1c(C)[nH]c(/C=C2\\C(=O)Nc3ccc(F)cc32)c1C", "note": "[sunitinib]", "values": [{"measurement": "Incidence of PPE", "setting": "[1]", "result": "up to 20%"}, {"measurement": "Median time to progression", "setting": "GIST; standard second-line therapy", "result": 27, "unit": "weeks"}]}
{"smiles": "Cc1ccc(NC(=O)c2ccc(CN3CCN(C)CC3)cc2)cc1Nc1nccc(-c2cccnc2)n1", "note": "[imatinib]", "values": [{"measurement": "Median time to progression", "setting": "GIST", "result": "approximately 2 years"}, {"measurement": "Median duration of response", "setting": "GIST; first-line", "result": "about 2 years"}, {"measurement": "Potency for wild-type versus mutant c-Kit", "setting": "c-Kit", "result": "significantly lower potency for wild-type c-Kit relative to mutant c-Kit"}]}
